Literature values, collected in patent US20060141030A1, “Method and composition for stable and controlled delivery of (-)-hydroxycitric acid” (priority 2003, published 2006).

Legend:
[1] = test system: human hepatoma cell line Hep G2
experimental animals = conditions: single large oral dose or two divided oral doses totaling one fourth of it; high-sugar diet
test subjects = conditions: chronic administration; resting and exercising conditions
middle-aged rats = conditions: 30% fat diet

| SMILES | incorporation of [1,5-14C]citrate into fatty acids and cholesterol ([1]; Hep G2, HCA 0.5 mM or higher, 2.5 h and 18 h incubations) | cholesterol biosynthesis, of the control value ([1]; Hep G2, incorporation from 3H2O) | reduction in food consumption (experimental animals) | respiratory exchange ratio (test subjects) | protein and fat as percentage of body weight (middle-aged rats) |
| --- | --- | --- | --- | --- | --- |
| O=C(O)CC(O)(C(=O)O)C(O)C(=O)O (single isomer, unassigned; (-)) [HCA, (−)-Hydroxycitric acid] | strongly inhibited | 27% | ≥ 10% | significantly lower |  |
| O=C([O-])CC(O)(C(=O)[O-])C(O)C(=O)[O-].[K+].[K+].[K+] (centres unmarked) [potassium HCA] |  |  |  |  | increased protein as a percentage of body weight while reducing fat as a percentage of body weight |
